The experiment concerns the target T1, Recombinant human mPGES-1 (Homo sapiens, UniProt O14684).
T1 construct: made in house; host or cells: CHO cells
T1 sequence (O14684 1-152): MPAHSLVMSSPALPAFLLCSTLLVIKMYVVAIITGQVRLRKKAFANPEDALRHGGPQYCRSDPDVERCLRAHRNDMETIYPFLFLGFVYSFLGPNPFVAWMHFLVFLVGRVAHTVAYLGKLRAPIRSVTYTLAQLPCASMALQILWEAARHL
Put plainly: In-vitro mPGES-1 inhibitor screening (inhibition of PGE2 formation from PGH2, HTRF detection). Format: biochemical. The settings on record: for inhibition at 1 µM: 1 μM test compound, read-out: Percentage inhibition at 1 μM; for inhibition at 1 µM / inhibition at 10 µM: crude microsomal fraction, 15 μM PGH2; for inhibition at 10 µM: 10 μM test compound, read-out: Percentage inhibition at 10 μM; for IC50: class symbol, concentration response curve. Put shortly:
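PGE2 formation measured by HTRF after 1 min reaction with 15 μM PGH2, stopped with stannous chloride (11 mg/ml). Beforehand, compound and crude CHO-expressed human mPGES-1 microsomes (40-60 μg/mL) sat 10 min in phosphate/EDTA buffer with 2.5 mM GSH (0.5% DMSO final). IC50 fitted from concentration-response of % inhibition.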
On the technique in general: TR-FRET usually uses a lanthanide donor and a delayed reading to cut background.

Broadly, the inhibition is the relative decrease from the control value, in per cent. In general, IC50 refers to the concentration at which inhibition is half-maximal.

Bounds are passed on as bounds.

As to `CC(C)(CO)C(=O)NCc1ccc(Cl)c(C(=O)Nc2cccc3c(Oc4cccc(C(F)(F)F)c4)ncnc23)c1F` [Example-66, 6-Chloro-2-fluoro-3-((3-hydroxy-2,2-dimethylpropanamido)methyl)-N-(4-(3-(trifluoromethyl)phenoxy)quinazolin-8-yl)benzamide], the inhibition at 1 µM was 96.7%, the inhibition at 10 µM amounted to 96.8% and the IC50 was < 50 nM.

Consider `CC(C)(C)Nc1ncnc2c(NC(=O)c3cc(CNC(=O)C(C)(C)C)ccc3Cl)cccc12` [Example-67, N-(4-(tert-Butylamino)quinazolin-8-yl)-2-chloro-5-(pivalamidomethyl)benzamide], for which the inhibition at 1 µM turned out to be 96.5%, the inhibition at 10 µM is 100% and the IC50 was < 50 nM.

Consider `Cc1ccc(CNC(=O)C(C)(C)C)c(C)c1C(=O)Nc1cccc2c(NC(C)(C)C)ncnc12` [Example-68, N-(4-(tert-Butylamino)quinazolin-8-yl)-2,6-dimethyl-3-(pivalamidomethyl)benzamide], for which the inhibition at 1 µM came to 99.8%, the inhibition at 10 µM turned out to be 100% and the IC50 was < 50 nM.

As for `CC(C)(C)Nc1ncnc2c(NC(=O)c3c(Cl)ccc(CNC(=O)C(C)(C)CO)c3F)cccc12` [Example-69, N-(4-(tert-Butylamino)quinazolin-8-yl)-6-chloro-2-fluoro-3-((3-hydroxy-2,2-dimethylpropanamido)methyl)benzamide], the inhibition at 1 µM came out at 84.9%, the inhibition at 10 µM amounted to 98.2% and the IC50 is < 50 nM.

On to `CC(C)C(=O)NCc1ccc(Cl)c(C(=O)Nc2cccc3c(NC(C)(C)C)ncnc23)c1F` [Example-70, N-(4-(tert-Butylamino)quinazolin-8-yl)-6-chloro-2-fluoro-3-(isobutyramidomethyl)benzamide], for which the inhibition at 1 µM amounted to 100%, the inhibition at 10 µM was 98.8% and the IC50 is < 50 nM.

With `CC(C)(C)Nc1ncnc2c(NC(=O)c3cc(CNC(=O)C(C)(C)C)c(F)cc3Cl)cccc12` [Example-71, N-(4-(tert-Butylamino)quinazolin-8-yl)-2-chloro-4-fluoro-5-(pivalamidomethyl)benzamide], the inhibition at 1 µM amounted to 100%, the inhibition at 10 µM amounted to 97.3% and the IC50 was < 50 nM.

Consider `CC(C)(C)Nc1ncnc2c(NC(=O)c3ccc(F)c(CNC(=O)C(C)(C)C)c3Cl)cccc12` [Example-72, N-(4-(tert-Butylamino)quinazolin-8-yl)-2-chloro-4-fluoro-3-(pivalamidomethyl)benzamide], for which the inhibition at 1 µM is 86.8%, the inhibition at 10 µM turned out to be 98.7% and the IC50 lay within 50 to 100 nM.

Regarding `CC(C)C(=O)NCc1ccc(Cl)c(C(=O)Nc2cccc3c(NCC(F)(F)F)ncnc23)c1F` [Example-73, 6-Chloro-2-fluoro-3-(isobutyramidomethyl)-N-(4-((2,2,2-trifluoroethyl)amino)quinazolin-8-yl)benzamide], the inhibition at 1 µM was 88.7%, the inhibition at 10 µM turned out to be 93.2% and the IC50 was < 50 nM.

On to `CC(C)C(=O)NCc1cnc(C(F)F)c(C(=O)Nc2cccc3c(Oc4cccc(C(F)(F)F)c4)ncnc23)c1` [Example-74, 2-(Difluoromethyl)-5-(isobutyramidomethyl)-N-(4-(3-(trifluoromethyl)phenoxy)quinazolin-8-yl)nicotinamide], for which the inhibition at 1 µM stood at 100%, the inhibition at 10 µM stood at 100% and the IC50 is < 50 nM.

As for `CC(C)C(=O)NCc1cnc(C(F)F)c(C(=O)Nc2cccc3c(NC(C)(C)C)ncnc23)c1` [Example-75, N-(4-(tert-Butylamino)quinazolin-8-yl)-2-(difluoromethyl)-5-(isobutyramidomethyl)nicotinamide], the inhibition at 1 µM was found to be 93.6%, the inhibition at 10 µM came to 98.3% and the IC50 was < 50 nM.

Take `CC(C)Nc1ncnc2c(NC(=O)c3cc(CNC(=O)C(C)C)cnc3C(F)F)cccc12` [Example-76, 2-(Difluoromethyl)-5-(isobutyramidomethyl)-N-(4-(isopropylamino)quinazolin-8-yl)nicotinamide]: the inhibition at 1 µM is 83.5%, the inhibition at 10 µM is 93.4% and the IC50 fell in the range of 50 to 100 nM.

Take `CC(C)Nc1ncnc2c(NC(=O)c3c(Cl)ccc(CNC(=O)C(C)C)c3F)cccc12` [Example-77, 6-Chloro-2-fluoro-3-(isobutyramidomethyl)-N-(4-(isopropylamino)quinazolin-8-yl)benzamide]: the inhibition at 1 µM was 78.4%, the inhibition at 10 µM is 99.9% and the IC50 is < 50 nM.

In the case of `CC(C)C(=O)NCc1cnc(C(F)F)c(C(=O)Nc2cccc3c(NCC(F)(F)F)ncnc23)c1` [Example-78, 2-(Difluoromethyl)-5-(isobutyramidomethyl)-N-(4-((2,2,2-trifluoroethyl)amino)quinazolin-8-yl)nicotinamide], the inhibition at 1 µM turned out to be 83.3%, the inhibition at 10 µM amounted to 94.8% and the IC50 was < 50 nM.

Consider `CC(C)(C)Nc1ncnc2c(NC(=O)c3c(Cl)ccc(CNC(=O)C(C)(C)CF)c3F)cccc12` [Example-79, N-(4-(tert-Butylamino)quinazolin-8-yl)-6-chloro-2-fluoro-3-((3-fluoro-2,2-dimethylpropanamido)methyl)benzamide], for which the inhibition at 1 µM was 100%, the inhibition at 10 µM was determined as 99.1% and the IC50 was < 50 nM.

For `CC(C)C(=O)NCc1cnc(C(F)F)c(C(=O)Nc2cccc3c(Oc4ccc(F)c(C(F)(F)F)c4)ccnc23)c1` [Example-80, 2-(Difluoromethyl)-N-(4-(4-fluoro-3-(trifluoromethyl)phenoxy)quinolin-8-yl)-5-(isobutyramidomethyl)nicotinamide], the inhibition at 1 µM came out at 99.7%, the inhibition at 10 µM came out at 98.5% and the IC50 is < 50 nM.

(Values after patent US9006257B2, “Bicyclic compounds as mPGES-1 inhibitors” (Glenmark Pharmaceuticals S.A., priority 2012, dated 2015).)
